Results taken from patent publication US20140142333A1, “NOVEL ANILINE DERIVATIVES AND USE THEREOF” (NEOMICS Co, Ltd., priority 2011, published 2014).

Legend:
AIMP2-DX2 [1] = biological target: T1, AIMP2-DX2 (Homo sapiens, UniProt Q13155); assay: luciferase assay of pGL-DX-2 transfected A549 cells; conditions: luciferase activity 4 hours after compound treatment; N.C (DMSO) 20089; lower = inhibition
T1 sequence (Q13155 1-251 isoform Q13155-2): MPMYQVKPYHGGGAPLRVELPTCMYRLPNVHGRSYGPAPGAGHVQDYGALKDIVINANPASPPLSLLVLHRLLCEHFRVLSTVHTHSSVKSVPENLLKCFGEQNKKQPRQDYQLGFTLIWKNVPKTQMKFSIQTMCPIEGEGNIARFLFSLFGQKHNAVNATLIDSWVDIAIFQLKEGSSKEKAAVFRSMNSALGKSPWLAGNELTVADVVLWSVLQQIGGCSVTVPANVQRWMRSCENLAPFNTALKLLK

AIMP2-DX2 [2] = biological target: T1, AIMP2-DX2; assay: luciferase assay of pGL-DX-2 transfected H460 cells; conditions: luciferase activity 4 hours after compound treatment; N.C (DMSO) 8627; lower = inhibition
Description: In order to screen for a compound specifically inhibiting the activity of AIMP2-DX2, from a compound library bought from ChemDive (US), the inventors' transfected lung cancer cell line, H460, with pGL2-DX2 (see FIG. 2). After culturing the cell line for 24 hours, they treated it with a compound. Then, after further culturing for 4 hours, luciferase activity was measured through a luciferase assay kit according to a manufacturer protocol (Promega, US), by using a luminometer.
After further culturing for 4 hours, luciferase activity was measured.

Cc1ccc(NC(=O)/C=C/C(=O)Nc2ccc(C)c(F)c2)cc1F [compound 24, N1,N4-bis(3-fluoro-4-methylphenyl)fumaramide]
AIMP2-DX2 activity in A549 cells (AIMP2-DX2 [1]): 5812
AIMP2-DX2 activity in H460 cells (AIMP2-DX2 [2]): 7094

Cc1cccc(NC(=O)/C=C\C(=O)Nc2cccc(C)c2)c1 [compound 4, N1,N4-di-m-tolylmaleamide]
AIMP2-DX2 activity in A549 cells (AIMP2-DX2 [1]): 9605
AIMP2-DX2 activity in H460 cells (AIMP2-DX2 [2]): 8189

Cc1ccc(NC(=O)/C=C/C(=O)Nc2ccc(C)c(C)c2)cc1C [compound 1, N1,N4-bis(3,4-dimethylphenyl)fumaramide]
AIMP2-DX2 activity in A549 cells (AIMP2-DX2 [1]): 14179
AIMP2-DX2 activity in H460 cells (AIMP2-DX2 [2]): 7101

Cc1ccc(NC(=O)/C=C\C(=O)O)cc1F [compound 20, (Z)-4-[(3-fluoro-4-methylphenyl)amino]-4-oxobut-2-enoic acid]
AIMP2-DX2 activity in A549 cells (AIMP2-DX2 [1]): 6446
AIMP2-DX2 activity in H460 cells (AIMP2-DX2 [2]): 7639

CCCCc1ccc(NC(=O)/C=C\C(=O)O)cc1 [compound 10, (Z)-4-[(4-butylphenyl)amino]-4-oxobut-2-enoic acid]
AIMP2-DX2 activity in A549 cells (AIMP2-DX2 [1]): 12399
AIMP2-DX2 activity in H460 cells (AIMP2-DX2 [2]): 8045

COc1cccc(NC(=O)C(C)C(=O)Nc2cc(C)ccc2C)c1 (stereo not drawn) [compound 28, N1-(2,5-dimethylphenyl)-N3-(3-methoxyphenyl)-2-methylmalonamide]
AIMP2-DX2 activity in A549 cells (AIMP2-DX2 [1]): 6691
AIMP2-DX2 activity in H460 cells (AIMP2-DX2 [2]): 7722

Cc1cccc(NC(=O)/C=C\C(=O)Nc2ccc(F)cc2)c1 [compound 29, N1-(4-fluorophenyl)-N4-(m-tolyl)maleamide]
AIMP2-DX2 activity in A549 cells (AIMP2-DX2 [1]): 5662
AIMP2-DX2 activity in H460 cells (AIMP2-DX2 [2]): 5916

Cc1cccc(NC(=O)/C=C\C(=O)O)c1 [compound 11, (Z)-4-oxo-4-(m-tolylamino) but-2-enoic acid]
AIMP2-DX2 activity in A549 cells (AIMP2-DX2 [1]): 6328
AIMP2-DX2 activity in H460 cells (AIMP2-DX2 [2]): 7143

CCCCc1cccc(NC(=O)/C=C\C(=O)Nc2ccc(C)c(C)c2)c1 [compound 16, N1-(3-butylphenyl)-N4-(3,4-dimethylphenyl)maleamide]
AIMP2-DX2 activity in A549 cells (AIMP2-DX2 [1]): 6871
AIMP2-DX2 activity in H460 cells (AIMP2-DX2 [2]): 7511

O=C(/C=C/C(=O)Nc1ccc(Cl)c(Cl)c1)Nc1ccc(Cl)c(Cl)c1 [compound 23, N1,N4-bis(3,4-dichlorophenyl)fumaramide]
AIMP2-DX2 activity in A549 cells (AIMP2-DX2 [1]): 5352
AIMP2-DX2 activity in H460 cells (AIMP2-DX2 [2]): 6391

Cc1cc(C)cc(NC(=O)/C=C\C(=O)O)c1 [compound 9, (Z)-4-[(3,5-dimethylphenyl)amino]-4-oxobut-2-enoic acid]
AIMP2-DX2 activity in A549 cells (AIMP2-DX2 [1]): 6786
AIMP2-DX2 activity in H460 cells (AIMP2-DX2 [2]): 7064

Cc1ccc(C)c(NC(=O)/C=C\C(=O)O)c1 [compound 8, (Z)-4-[(2,5-dimethylphenyl)amino]-4-oxobut-2-enoic acid]
AIMP2-DX2 activity in A549 cells (AIMP2-DX2 [1]): 6705
AIMP2-DX2 activity in H460 cells (AIMP2-DX2 [2]): 7648

CCc1cccc(NC(=O)/C=C\C(=O)Nc2ccc(F)cc2)c1 [compound 19, N1-(3-ethylphenyl)-N4-(4-fluorophenyl)maleamide]
AIMP2-DX2 activity in A549 cells (AIMP2-DX2 [1]): 3978
AIMP2-DX2 activity in H460 cells (AIMP2-DX2 [2]): 3715

Cc1cc(F)ccc1NC(=O)/C=C\C(=O)Nc1ccc(F)cc1C [compound 27, N1,N4-bis(4-fluoro-2-methylphenyl)maleamide]
AIMP2-DX2 activity in A549 cells (AIMP2-DX2 [1]): 5586
AIMP2-DX2 activity in H460 cells (AIMP2-DX2 [2]): 6029

Cc1ccc(C)c(NC(=O)/C=C\C(=O)Nc2ccc(C)c(C)c2)c1 [compound 3, N1-(2,5-dimethylphenyl)-N4-(3,4-dimethylphenyl)maleamide]
AIMP2-DX2 activity in A549 cells (AIMP2-DX2 [1]): 10043
AIMP2-DX2 activity in H460 cells (AIMP2-DX2 [2]): 7749

COc1cccc(NC(=O)C(C)C(=O)Nc2cc(C)cc(C)c2)c1 (stereo not drawn) [compound 30, N1-(3,5-dimethylphenyl)-N3-(3-methoxyphenyl)-2-methylmalonamide]
AIMP2-DX2 activity in A549 cells (AIMP2-DX2 [1]): 7291
AIMP2-DX2 activity in H460 cells (AIMP2-DX2 [2]): 7167

Cc1ccc(NC(=O)/C=C\C(=O)Nc2ccc(F)cc2C)cc1C [compound 5, N1-(3,4-dimethylphenyl)-N4-(4-fluoro-2-methylphenyl)maleamide]
AIMP2-DX2 activity in A549 cells (AIMP2-DX2 [1]): 9643
AIMP2-DX2 activity in H460 cells (AIMP2-DX2 [2]): 7427

O=C(O)/C=C\C(=O)Nc1ccc(F)cc1 [compound 12, (Z)-4-[(4-fluorophenyl)amino]-4-oxobut-2-enoic acid]
AIMP2-DX2 activity in A549 cells (AIMP2-DX2 [1]): 7937
AIMP2-DX2 activity in H460 cells (AIMP2-DX2 [2]): 7031

Cc1ccc(NC(=O)/C=C\C(=O)Nc2cc(Cl)cc(Cl)c2)cc1C [compound 7, N1-(3,5-dichlorophenyl)-N4-(3,4-dimethylphenyl)maleamide]
AIMP2-DX2 activity in A549 cells (AIMP2-DX2 [1]): 8268
AIMP2-DX2 activity in H460 cells (AIMP2-DX2 [2]): 5019

Cc1ccc(NC(=O)/C=C\C(=O)Nc2ccc(C)c(F)c2)cc1C [compound 6, N1-(3,4-dimethylphenyl)-N4-(3-fluoro-4-methylphenyl)maleamide]
AIMP2-DX2 activity in A549 cells (AIMP2-DX2 [1]): 10551
AIMP2-DX2 activity in H460 cells (AIMP2-DX2 [2]): 8901

O=C(O)/C=C\C(=O)Nc1cc(Cl)cc(Cl)c1 [compound 13, (Z)-4-[(3,5-dichlorophenyl)amino]-4-oxobut-2-enoic acid]
AIMP2-DX2 activity in A549 cells (AIMP2-DX2 [1]): 8049
AIMP2-DX2 activity in H460 cells (AIMP2-DX2 [2]): 7855

Cc1cc(C)cc(NC(=O)/C=C\C(=O)Nc2ccc(C)c(C)c2)c1 [compound 15, N1-(3,4-dimethylphenyl)-N4-(3,5-dimethylphenyl)maleamide]
AIMP2-DX2 activity in A549 cells (AIMP2-DX2 [1]): 6981
AIMP2-DX2 activity in H460 cells (AIMP2-DX2 [2]): 8621

CCOC(=O)CC(=O)Nc1ccc(O)cc1Cl [compound 32, ethyl 3-[(2-chloro-4-hydroxyphenyl)amino]-3-oxopropanoate]
AIMP2-DX2 activity in A549 cells (AIMP2-DX2 [1]): 19889
AIMP2-DX2 activity in H460 cells (AIMP2-DX2 [2]): 4848

O=C(/C=C/C(=O)Nc1cc(Cl)cc(Cl)c1)Nc1cc(Cl)cc(Cl)c1 [compound 21, N1,N4-bis(3,5-dichlorophenyl)fumaramide]
AIMP2-DX2 activity in A549 cells (AIMP2-DX2 [1]): 7285
AIMP2-DX2 activity in H460 cells (AIMP2-DX2 [2]): 6061

Cc1ccc(NC(=O)/C=C\C(=O)Nc2ccc(Br)cc2)cc1C [compound 17, N1-(4-bromophenyl)-N4-(3,4-dimethylphenyl)maleamide]
AIMP2-DX2 activity in A549 cells (AIMP2-DX2 [1]): 6975
AIMP2-DX2 activity in H460 cells (AIMP2-DX2 [2]): 5718

CCOC(=O)C(C)C(=O)Nc1ccc2cc3ccccc3cc2c1 (stereo not drawn) [compound 31, ethyl 3-(anthracen-2-ylamino)-2-methyl-3-oxopropanoate]
AIMP2-DX2 activity in A549 cells (AIMP2-DX2 [1]): 5771
AIMP2-DX2 activity in H460 cells (AIMP2-DX2 [2]): 6346

COc1ccc(NC(=O)/C=C\C(=O)Nc2ccc(OC)cc2)cc1 [compound 25, N1,N4-bis(4-methoxyphenyl) maleamide]
AIMP2-DX2 activity in A549 cells (AIMP2-DX2 [1]): 5152
AIMP2-DX2 activity in H460 cells (AIMP2-DX2 [2]): 6085

Cc1cc(Cl)cc(Cl)c1NC(=O)/C=C\C(=O)O [compound 14, (Z)-4-[(2,4-dichloro-6-methylphenyl)amino]-4-oxobut-2-enoic acid]
AIMP2-DX2 activity in A549 cells (AIMP2-DX2 [1]): 240
AIMP2-DX2 activity in H460 cells (AIMP2-DX2 [2]): 230

O=C(/C=C/C(=O)Nc1ccc(Br)cc1)Nc1ccc(Br)cc1 [compound 22, N1,N4-bis(4-bromophenyl) fumaramide]
AIMP2-DX2 activity in A549 cells (AIMP2-DX2 [1]): 5647
AIMP2-DX2 activity in H460 cells (AIMP2-DX2 [2]): 6377

Cc1cccc(NC(=O)/C=C/C(=O)Nc2cccc(C)c2)c1 [compound 2, N1,N4-di-m-tolylfumaramide]
AIMP2-DX2 activity in A549 cells (AIMP2-DX2 [1]): 14072
AIMP2-DX2 activity in H460 cells (AIMP2-DX2 [2]): 7292

Cc1ccc(NC(=O)/C=C\C(=O)Nc2ccc(F)cc2)cc1F [compound 26, N1-(3-fluoro-4-methylphenyl)-N4-(4-fluorophenyl)maleamide]
AIMP2-DX2 activity in A549 cells (AIMP2-DX2 [1]): 6525
AIMP2-DX2 activity in H460 cells (AIMP2-DX2 [2]): 6428

CCOC(=O)C(C)C(=O)Nc1ccc(O)cc1Cl (stereo not drawn) [compound 33, ethyl 3-[(2-chloro-4-hydroxyphenyl)amino]-2-methyl-3-oxopropanoate]
AIMP2-DX2 activity in A549 cells (AIMP2-DX2 [1]): 18631
AIMP2-DX2 activity in H460 cells (AIMP2-DX2 [2]): 5403

COc1cccc(NC(=O)/C=C\C(=O)Nc2ccc(F)cc2)c1 [compound 18, N1-(4-fluorophenyl)-N4-(3-methoxyphenyl)maleamide]
AIMP2-DX2 activity in A549 cells (AIMP2-DX2 [1]): 4239
AIMP2-DX2 activity in H460 cells (AIMP2-DX2 [2]): 3246
